Legend:
[1] = Rat plasma pharmacokinetics, solution formulations of C16, cyclohexyl and 5-decanyl esters, 3 mg-eq/kg i.v.; format: in vivo; conditions: solution formulation 3 mg-eq/kg i.v.
Experimental: (§2) Plasma and other tissues were prepared for high performance liquid chromatography (HPLC)/mass spectrometric analysis according to a standard protocol following protein precipitation with acetonitrile containing an internal standard. The samples were then analyzed for both bendamustine HCl and bendamustine esters of the invention and alprenolol (internal standard) via HPLC coupled with tandem mass spectrometry. Tissue samples were homogenized in sodium phosphate buffer and the value obtained from the assay was multiplied by 3 to correct for dilution during processing.
(§3) Adult animals (Charles River, Kingston, N.Y.; n=3 or 4/time point) were used in all experiments. The mice or rats were not fasted overnight prior to IV dose administration via the lateral tail vein. IV doses were administered in a fixed dose volume of 100 μL in mice or a dose volume of 1 mL/kg in rats. The mice were sacrificed by decapitation and trunk blood was collected into heparinized tubes at the sampling times stipulated. For blood collection, each rat (unanesthetized) was placed in a clear Plexiglas® restraining tube, and blood samples (approximately 0.25 mL) were drawn from a lateral tail vein into heparinized collection tubes at the sampling times stipulated. (Note: No pre-dose samples were obtained.) The exception to this procedure was the last sampling time in which the rats were sacrificed by decapitation and trunk blood was obtained rather than blood via a tail vein. The blood samples were placed on wet ice until centrifuged to separate plasma. The plasma fraction was transferred into clean, dry tubes, frozen on dry ice and stored at approximately −20° C. pending analysis. Whole brains and other highly perfused organs (liver, lung, spleen, kidney and heart) were rapidly removed at the predetermined time points and frozen on dry ice. All tissue samples were also stored at approximately −20° C. pending analysis.
(§4) The plasma concentration data for all mice and rats were entered into Excel spreadsheets in preparation for pharmacokinetic analysis. Mean pharmacokinetic parameters were estimated by non-compartmental analysis (Gibaldi and Perrier 1982) of the plasma concentration versus time data using WinNonlin software (Professional Version 4.1, Pharsight Corporation, Palo Alto, Calif.). The terminal rate constant for elimination from plasma (β) was estimated by linear regression of the terminal portion of the semi-logarithmic plasma concentration versus time curve. The apparent terminal half-life (t1/2) was calculated as 0.693 divided by β. The area under the plasma concentration versus time curve from time zero to the time of the last measurable concentration (AUC0-t) after a single dose was determined by the linear trapezoidal rule. The area from zero to infinity (AUC0-∞) was calculated as the sum of AUC0-t and the area extrapolated from the last measurable concentration to infinity (Clast/β). Concentrations pre-dose were all assumed to be zero for the purpose of calculation of the AUC. Any concentration that was below the limit of quantification (BLQ) after the last quantifiable sampling time was considered to be an empty value for the purpose of calculation of the AUC; it was treated as zero for the calculation of the mean concentration for a given sampling time.

MB-231 (HBC) = assay: MTS cell assay, MB-231; format: cell-based, Human; conditions: 72 hours
Experimental: Charles River Labs athymic nude mice bearing MDA-MB-231 breast carcinoma cell line subcutaneous xenografts (5×10^6 cells in matrigel) were sacrificed to make a tumor isolate. Using sterile instruments and working aseptically, the tumors were removed from the euthanized animal. The tumor was placed in a 50 mL sterile conical tube and 5 mL of trypsin was added. The tumor was cut into small pieces and incubated at 37° C. for 30 minutes. After incubation, a cell strainer was placed on a second, sterile, 50 mL conical tube and the contents of the first tube were placed in the cell strainer. The tissue was forced through the filter using the flat end of a syringe plunger. The cell strainer was washed with 5 mLs of media containing FBS. The cells were spun down and the supernatant was discarded. The cells were resuspended in 20 mLs of complete media containing P/S and placed in a 75 cm flask.
(§1) Human carcinoma cells (2,000 cells/well) were incubated with the desired concentration of the test molecule (0-200 μM) for 72 hours. The cells were then incubated with MTS solution (Promega) for 1-2 hours, and the compounds effects on cell proliferation was determined by measuring the absorbance at 490 nm. Cell growth was expressed as a percent of the appropriate control (placebo). […] All data reported was the mean±SE of three independent experiments.

H-460 (NSCLC) = assay: MTS cell assay, H-460; format: cell-based, Human
Experimental: as §1

[2] = Rat plasma, blood and organ pharmacokinetics after bendamustine C12 ester 30 mg/kg i.v.; format: in vivo; conditions: 1 mL/kg
Experimental: as §2, §3, §4

[3] = Homo sapiens, NCI-H460, 72 hours
[4] = C12 ester Nanoparticle Formulation

In the case of `Cn1c(CCCC(=O)OC2CCCCC2)nc2cc(N(CCCl)CCCl)ccc21` [Cy-hexyl bendamustine ester, 4-{5-[Bis-(chloroethyl)-amino]-1-methyl-1H-benzimidazol-2-yl}butyric acid cyclohexyl ester], the “Plasma levels of Ester” value [1] is reported as “All < MQL”.

For `CCCCCCCCCCCCCCCCOC(=O)CCCc1nc2cc(N(CCCl)CCCl)ccc2n1C` [C16 bendamustine ester, 4-{5-[Bis-(chloroethyl)-amino]-1-methyl-1H-benzimidazol-2-yl}butyric acid hexadecyl ester], the IC50 (MB-231 (HBC); Homo sapiens) was over 200 µM, the AUC(0-t) ([1]; plasma, iv, 3 mg/kg, Mean n = 3, read-out: AUC0-t of Ester in plasma) was 1210 ng·h/mL and the AUC(0-inf) ([1]; plasma, iv, 3 mg/kg, Mean n = 3, read-out: AUC0-∞ of Ester in plasma) was 1210 ng·h/mL. For the same compound, the clearance ([1]; plasma, iv, 3 mg/kg, Mean n = 3, read-out: CL of Ester) was 41 mL/min/kg, the Vd ([1]; plasma, iv, 3 mg/kg, Mean n = 3, read-out: Vd of Ester) was 1 L/kg and the half-life ([1]; plasma, iv, 3 mg/kg, Mean n = 3, read-out: t1/2 of Ester in plasma (converted)) was 0.28 h. The IC50 (H-460 (NSCLC); [3]) was 77.8 µM.

`CCCCCCCCOC(=O)CCCc1nc2cc(N(CCCl)CCCl)ccc2n1C` [—C8H17, 4-{5-[Bis-(chloroethyl)-amino]-1-methyl-1H-benzimidazol-2-yl}butyric aid octyl ester] showed an IC50 (H-460 (NSCLC); 72 hours) of 49 µM.

Work on `CCCCOC(=O)CCCc1nc2cc(N(CCCl)CCCl)ccc2n1C` [—C4H9, 4-{5-[Bis-(chloroethyl)-amino]-1-methyl-1H-benzimidazol-2-yl}butyric acid butyl ester] yielded an IC50 (MB-231 (HBC); Homo sapiens) of 13.3 µM and an IC50 (H-460 (NSCLC); [3]) of 15.7 µM.

Compound `CCCCCCCCCCCCCCCOC(=O)CCCc1nc2cc(N(CCCl)CCCl)ccc2n1C` [—C15H31, 4-{5-[Bis-(chloroethyl)-amino]-1-methyl-1H-benzimidazol-2-yl}butyric acid pentadecyl ester] has an IC50 (MB-231 (HBC); Homo sapiens) of over 200 µM and an IC50 (H-460 (NSCLC); [3]) of over 200 µM.

For `CCCCCCOC(=O)CCCc1nc2cc(N(CCCl)CCCl)ccc2n1C` [—C6H13, 4-{5-[Bis-(chloroethyl)-amino]-1-methyl-1H-benzimidazol-2-yl}butyric acid hexyl ester], the IC50 (MB-231 (HBC); Homo sapiens) was 43.7 µM and the IC50 (H-460 (NSCLC); [3]) was 7.4 µM.

In the case of `CCCCCCCCCCOC(=O)CCCc1nc2cc(N(CCCl)CCCl)ccc2n1C` [—C10H21, 4-{5-[Bis-(chloroethyl)-amino]-1-methyl-1H-benzimidazol-2-yl}butyric acid decyl ester], the IC50 (MB-231 (HBC); Homo sapiens) is reported as 38.9 µM and the IC50 (H-460 (NSCLC); [3]) is reported as 23.8 µM.

With `CCCCCC(CCCC)OC(=O)CCCc1nc2cc(N(CCCl)CCCl)ccc2n1C` (stereo not drawn) [5-decanyl ester, 4-{5-[Bis-(chloroethyl)-amino]-1-methyl-1H-benzimidazol-2-yl}butyric acid 5-decyl ester] the “Plasma levels of Ester” value [1] was “All < MQL”.

For `CCCCCCCCCCCCOC(=O)CCCc1nc2cc(N(CCCl)CCCl)ccc2n1C` [Bendamustine C12 Ester, 4-{5-[Bis-(chloroethyl)-amino]-1-methyl-1H-benzimidazol-2-yl}butyric aid dodecyl ester], the IC50 (MB-231 (HBC)) was 33.3 µM, the “AUC0-t of C12 Ester, Blood” value ([2]; C12 ester Liquid Formulation) was 4424 ng·h/mL and the “AUC0-t of C12 Ester, Brain” value ([2]; C12 ester Liquid Formulation) was 299 ng·h/mL. The “AUC0-t of C12 Ester, Kidney” value ([2]; C12 ester Liquid Formulation) was 2383 ng·h/mL, the “AUC0-t of C12 Ester, Liver” value ([2]; C12 ester Liquid Formulation) was 2564 ng·h/mL and the “AUC0-t of C12 Ester, Lung” value ([2]; C12 ester Liquid Formulation) was 12619 ng·h/mL. The “AUC0-t of C12 Ester, Spleen” value ([2]; C12 ester Liquid Formulation) was 25874 ng·h/mL, the “AUC0-∞ of C12 Ester, Kidney” value ([2]; C12 ester Liquid Formulation) was 2605 ng·h/mL and the “AUC0-∞ of C12 Ester, Liver” value ([2]; C12 ester Liquid Formulation) was 2586 ng·h/mL. For the same compound, the “AUC0-∞ of C12 Ester, Lung” value ([2]; C12 ester Liquid Formulation) was 13246 ng·h/mL, the “AUC0-∞ of C12 Ester, Spleen” value ([2]; C12 ester Liquid Formulation) was 25927 ng·h/mL and the “t1/2 of C12 Ester, Kidney” value ([2]; C12 ester Liquid Formulation) was 5.3 h. For the same compound, the “t1/2 of C12 Ester, Liver” value ([2]; C12 ester Liquid Formulation) was 0.8 h, the “t1/2 of C12 Ester, Lung” value ([2]; C12 ester Liquid Formulation) was 7.6 h and the “t1/2 of C12 Ester, Spleen” value ([2]; C12 ester Liquid Formulation) was 3.1 h. The “AUC0-t of C12 Ester, Blood” value [2, 4] was 951 ng·h/mL, the “AUC0-t of C12 Ester, Brain” value [2, 4] was 149 ng·h/mL and the “AUC0-t of C12 Ester, Kidney” value [2, 4] was 1766 ng·h/mL. The “AUC0-t of C12 Ester, Liver” value [2, 4] was 13355 ng·h/mL, the “AUC0-t of C12 Ester, Lung” value [2, 4] was 28327 ng·h/mL and the “AUC0-t of C12 Ester, Spleen” value [2, 4] was 13111 ng·h/mL. For the same compound, the “AUC0-∞ of C12 Ester, Kidney” value [2, 4] was 1802 ng·h/mL, the “AUC0-∞ of C12 Ester, Liver” value [2, 4] was 13586 ng·h/mL and the “AUC0-∞ of C12 Ester, Lung” value [2, 4] was 32297 ng·h/mL. For the same compound, the “AUC0-∞ of C12 Ester, Spleen” value [2, 4] was 13578 ng·h/mL, the “t1/2 of C12 Ester, Kidney” value [2, 4] was 4.9 h and the “t1/2 of C12 Ester, Liver” value [2, 4] was 4.5 h. For the same compound, the “t1/2 of C12 Ester, Lung” value [2, 4] was 8.5 h, the “t1/2 of C12 Ester, Spleen” value [2, 4] was 5.4 h and the IC50 (H-460 (NSCLC); 72 hours) was 28.8 µM.

Reference: patent US9452988B2, “Bendamustine derivatives and methods of using same” (Ignyta, Inc., priority 2012, dated 2016)
